According to US5851556A, “Use of a salt of an alkaline-earth metal as TNF-A or substance P inhibitor in a topical composition and composition obtained” (Societe L'Oreal S.A., priority 1995, dated 1998):

Legend:
substance P = test: release of substance P caused by antidromic stimulation of the sciatic nerve, visualized with Evans blue; type: in vivo; settings: for % inhibition relative to the control / μg/ml of Evans blue: 1 μmol; for μg/ml of Evans blue: control vehicle 8.19 ± 0.83
Text: The test consisted in determining the activity of the various compounds on the release of substance P, caused by antidromic stimulation of the sciatic nerve. This release is visualized by staining with a dye (Evans blue). The greater the quantity of substance P released, the more intense the colour. In other words, the greater the inhibitory effect produced on this release by the substance P antagonist, the less intense the colour.

TNF-alpha = TNF-alpha secretion by human monocytes (U937 line) stimulated by phorbol ester (PMA); type: cell-based; settings: U937, PMA 10 nM, 48 hours; for % inhibition of TNF-alpha secretion induced by PMA: mean of 3 measurements
Protocol: This test is performed on human monocytes (U937 line) stimulated by a phorbol ester (PMA) according to the method described by Schindler et al (Correlations and interactions in the production of interleukin-6 (IL-6), IL-1, and Tumor Necrosis Factor (TNF) in human blood mononuclear cells: IL-6 suppresses IL-1 and TNF. Blood 75: 40-47 (1990)).
The phorbol ester (PMA) naturally stimulates the synthesis and/or the secretion of TNF-alpha by human monocytes in culture.
The activity of the molecules is evaluated according to their ability to reduce or even eliminate this TNF-alpha secretion.
The cells (monocytes) are incubated in the presence of PMA at the concentration of 10 nM for 48 hours at 37° C. The quantities of TNF-alpha secreted are quantified by immuno-enzymatic assay ([…]) with the aid of commercially available kits.
Each molecule is tested at 3 different concentrations (10^-5, 10^-4 and 10^-3 M) and during each experiment, a reference molecule (dexamethasone) is studied at 7 concentrations as internal standard.
The results are expressed as percentage inhibition relative to the positive control (without test molecule) after subtracting the background noise. A recapitulative Table 3 groups together the mean inhibitory effects obtained with the compounds. (The results expressed in % inhibition; they are the mean of 3 measurements).

## O=[N+]([O-])[O-].O=[N+]([O-])[O-].[Ca+2] [Ca(NO3)2, calcium nitrate]
Substance P; Table 1, salts at 1 μmol
  inhibitory activity on the release of substance P: does not have any activity at all
Substance P; Table 2, strontium salts 1 μmol, calcium salt 10 μmol
  inhibitory activity on the release of substance P: has no activity at all

## [Ca+2].[Cl-].[Cl-] [CaCl2,7H2 O, calcium chloride]
TNF-alpha; 10^-3 M
  % inhibition of TNF-alpha secretion induced by PMA: 67%
TNF-alpha; 10^-4 M
  % inhibition of TNF-alpha secretion induced by PMA: 22%
TNF-alpha; 10^-5 M
  % inhibition of TNF-alpha secretion induced by PMA: 19%

## [Cl-].[Cl-].[Mg+2] [MgCl2, magnesium chloride]
TNF-alpha; 10^-3 M
  % inhibition of TNF-alpha secretion induced by PMA: 70%
TNF-alpha; 10^-4 M
  % inhibition of TNF-alpha secretion induced by PMA: 12%

## O=[N+]([O-])[O-].O=[N+]([O-])[O-].[Sr+2] [Sr(NO3)2, strontium nitrate]
Substance P; Table 1
  % inhibition relative to the control: 41%
  μg/ml of Evans blue: 4.84 ± 0.6 µg/mL
Substance P; Table 2
  % inhibition relative to the control: 71%
TNF-alpha; 10^-3 M
  % inhibition of TNF-alpha secretion induced by PMA: 75%
TNF-alpha; 10^-4 M
  % inhibition of TNF-alpha secretion induced by PMA: 28%

## [Cl-].[Cl-].[Sr+2] [SrCl2 7H2 O, strontium chloride]
TNF-alpha; 10^-3 M
  % inhibition of TNF-alpha secretion induced by PMA: 54%
TNF-alpha; 10^-5 M
  % inhibition of TNF-alpha secretion induced by PMA: 14%

## [Cl-].[Cl-].[Sr+2] [SrCl2, strontium chloride]
Substance P; Table 1
  % inhibition relative to the control: 37%
  μg/ml of Evans blue: 5.13 ± 0.9 µg/mL
Substance P; Table 2
  % inhibition relative to the control: 57%

## C[C@@H]1C[C@H]2[C@@H]3CCC4=CC(=O)C=C[C@]4(C)[C@@]3(F)[C@@H](O)C[C@]2(C)[C@@]1(O)C(=O)CO [dexamethasone, reference compound]
TNF-alpha; Homo sapiens, U-937, read-out: IC50 (50% reduction in the secretion, caused by PMA), reference molecule, 7 concentrations
  IC50: 4 nM
